Reference: patent publication US10172899B2, “Composition for preventing, treating and improving of voiding dysfunction comprising extract from Piper longum L” (priority 2014, dated 2019)

How the values were obtained:
[1] = tested on: CYP-induced cystitis rat model; assay: Cystometry in CYP-induced cystitis model after dosing for 3 days (Example 6.2); format: in vivo; details: extract 200 mg/kg from 3 days before cystometry; oxybutynin 0.3 mg/kg via caudal vein on the day
Method: 65 of specific pathogen-free (SPF) SD female rats were purchased from ORIENT (Korea) and used. Day and night were controlled by a 12 hour cycle, and they were allowed to access to food and water freely.
(§1) To measure bladder pressure, bladder capacity and voiding volume, which are parameters for identifying improvement of voiding dysfunction, cyclophosphamide (150 mg/kg) was once intraperitoneally administered to rats excluding a normal control group to induce irritable bladder symptoms at 3 days before cystometry. From 3 Days before cystometry, a solvent (DMSO/10% Cremophor EL=1:9, vol/vol) had been administrated to a solvent control group, and 95% by volume of aqueous ethanol solution extract of Piper Longum L. fruits prepared in Preparation Example 4.1 had been administrated to an experimental group at 200 mg/kg. In addition, oxybutynin as a positive control group was injected via a caudal vein at 0.3 mg/kg on the day of experiment.
(§2) For cystometry and injection of a physiological saline solution, instruments for cystometry and insertion of a bladder vessel were the same as in the above Example 5.2, and voiding volume and residual volume were recorded by sampling urine in a 1.5 ml tube and measuring its weight.
The basal pressure (BP), threshold pressure (TP), micturition pressure (MP) and micturition interval (MI) which are defined as in the above Example 5.2. In addition, a voiding volume being an parameter of volume parameter was defined by sampling urine in a 1.5 ml tube on the last voiding during urodynamic measurements and measuring its weight. After completing micturition, a residual volume was defined by placing the catheter inserted into bladder at the lower portion than the rat and measuring the weight of the obtained physiological saline. A bladder capacity (BC) was calculated by combining the measured residual volume (RV) and voiding volume (VV) of the rat.
The voiding cycles were measured for 120 minutes, and the average values of each parameter were calculated by selecting the most representative 5 continuous cycles among the measured voiding cycles.

muscarinic M2 receptor = biological target: T1, muscarinic M2 receptor (Homo sapiens, UniProt P08172); assay: Relief of acetylcholine inhibition of forskolin-induced cAMP in human bladder smooth muscle cells (ELISA); format: cell-based; details: 10 μM, with Forskolin 10 μM + ACh 10 μM
T1 construct: The human bladder smooth muscle Cells (hBdSMC) where the muscarinic M2 receptor had been expressed were purchased from Lonza; host or cells: human bladder smooth muscle cells (hBdSMC)
T1 sequence (P08172 1-466): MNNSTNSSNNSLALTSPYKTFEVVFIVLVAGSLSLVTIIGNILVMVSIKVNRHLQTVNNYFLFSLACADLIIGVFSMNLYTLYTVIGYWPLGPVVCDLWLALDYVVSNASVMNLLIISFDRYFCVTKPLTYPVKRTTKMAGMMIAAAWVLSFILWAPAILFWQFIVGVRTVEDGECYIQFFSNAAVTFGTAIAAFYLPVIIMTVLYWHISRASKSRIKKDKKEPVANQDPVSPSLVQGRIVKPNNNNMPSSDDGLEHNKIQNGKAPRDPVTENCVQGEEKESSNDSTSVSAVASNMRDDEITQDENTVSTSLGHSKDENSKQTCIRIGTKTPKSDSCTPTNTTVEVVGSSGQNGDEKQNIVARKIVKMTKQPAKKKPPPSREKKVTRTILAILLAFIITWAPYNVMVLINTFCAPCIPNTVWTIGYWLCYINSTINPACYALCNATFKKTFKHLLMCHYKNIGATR
Source text: It is known that when muscarinic M2 receptor, which is one of GPCR (G protein-coupled receptors), is coupled with acetylcholine being an agonist it inhibits activity of adenylyl cyclase enzyme to decrease a concentration of cAMP in cells, in which if the amount of cAMP increases, detrusor is relaxed, or otherwise if the amount of cAMP decreases, detrusor is contracted. Therefore, in confirming improvement of voiding dysfunction, it is important to identify an effect of being capable of increasing or decreasing the amount of cAMP. Accordingly, it was identified whether or not the extract of Piper Longum L. has activity of inhibiting muscarinic receptor that may inhibit decrease of a concentration of cAMP by acetylcholine, by pre-treating 95% by volume of aqueous solution of ethanol extract of Piper Longum L., treating it with acetylcholine which may serve as an activator of muscarinic M2 receptor to induce decrease of a concentration of cAMP, and treating it with Forskolin that may raise a concentration of cAMP in cells. More specifically, the procedure is as follows.
The human bladder smooth muscle Cells (hBdSMC) where the muscarinic M2 receptor had been expressed were purchased from Lonza (cambrex), and used. […] The amount of cAMP in cells was evaluated by measuring absorbance (408 nm) with an ELISA kit from the supernatant taken after centrifuging cells dissolved in 0.1M HCl.

[2] = tested on: CYP-induced cystitis rat model; assay: Cystometry in CYP-induced cystitis model, ethanol and water extracts (Example 6.3); format: in vivo; details: extracts 200 mg/kg, oxybutynin 0.3 mg/kg
Method: as §1, §2
The basal pressure (BP), threshold pressure (TP), micturition pressure (MP) and micturition interval (MI) which are defined as in the above Example 5.2. […] A bladder capacity (BC) was calculated by combining the measured residual volume (RV) and voiding volume (VV) of the rat. […]

[3] = tested on: spontaneously hypertensive rat (SHR); assay: Urodynamic study in SHR under un-anesthesia; format: in vivo
Method: 12˜18 Week-old male SHRs were purchased from Charles River (Japan) and used. Day and night were controlled by a 12 hour cycle, and they were allowed to access to food and water freely. All the rats had to urinate at 3-5 cycles under a condition with no administration. The micturition parameters of rats under a condition with no administration were considered as control groups for urodynamic parameters, while the rats, to which the water extract of Piper Longum L. fruits prepared in Preparation Example 4.2 was directly administered into gastrointestinal tracts at 300 mg/kg via catheters coupled to stomachs, became experimental groups. As a positive control group, rats administered with tolterodine at 1 mg/kg were used. The Piper Longum L. water extract and tolterodine-dosing groups were each set by 6 rats.
To measure bladder pressure, bladder capacity, voiding volume and micturition interval, which are parameters for identifying improvement of voiding dysfunction, insertion of a bladder tube and a vessel for measuring an abdominal pressure was carried out in SHR models. For cystometry and injection of a physiological saline solution, a rat was incised in center of its lower abdomen 3 days before the day of measuring urodynamic parameters, and a cuffed polyethylene catheter with a cuff (PE-50, Becton Dickinson, Parsippany, USA) was fixed on its bladder dome with purse-string suture. In addition, a polyethylene catheter (PE-10, Becton Dickinson, Parsippany, USA) with a balloon for measuring abdominal pressure was fixed on the bladder, and another polyethylene catheter (PE-10, Becton Dickinson, Parsippany, USA) was fixed following being inserted in the gastrointestinal tract. The above catheters were passed through beneath skin, and then fixed on dorsal skin, the ends of which were closed by applying heat. An un-anesthetized rat being free was placed in a metabolic cage at 3 days after inserting a bladder tube and a vessel for measuring an abdominal pressure. The tube on the back of its neck was coupled to a microinjection pump (PHD22/2000 pump; Harvard Apparatus) and a pressure transducer (Research Grade Blood Pressure Transducer; Harvard Apparatus, Holliston, USA) with a T-tube, and then intravesical pressures were measured, with injecting the physiological saline solution at room temperate at a speed of 10 ml/hour. It is to measure intravesical pressures in the rat using a principle that when a predetermined volume of physiological saline solution is filled in the bladder, it is contracted to urinate. The abdominal pressure was measured by coupling the vessel for measuring abdominal pressure to the other pressure transducer. Also, to measure a voiding volume being an indicator of volume parameter, the voiding volume was measured from a urine amount collected in a urine collector cup (fluid collector) coupled to a force displacement transducer (Research Grade Isometric Transducer; Harvard Apparatus).
Beginning to measure urodynamic parameters before administration of the extracts of Piper Longum L. and tolterodine, records of 3 to 5 stabilized micturition cycles were obtained. Then, the Piper Longum L. extracts and tolterodine were orally administered after decoupling the catheter. The catheters were again coupled thereto 20 minutes after oral administration of drugs, and voiding cycles and urodynamic study were carried out by having the rat to urinate 3 to 5 times. The average values of each parameter were measured by selecting the most representative 3 continuous cycles from voiding cycles measured before and after administration of drug.
In 3 repeated voiding cycles, a basal pressure (BP), which is an parameter of intravesical pressure, is the lowest pressure in cystometry, a threshold pressure (TP) is a pressure immediately before micturition contraction, and a micturition pressure (MP) means the maximum bladder pressure represented on voiding. […]

[4] = After Dosing, water extract 300 mg/kg, tolterodine 1 mg/kg
[5] = after vs before dosing, increase

## CCN(CC)CC#CCOC(=O)C(O)(c1ccccc1)C1CCCCC1 (stereo not drawn) [Oxybutynin, oxybutynin]
[1]
  BC (bladder capacity): 0.46 ± 0.14 mL
  BP (basal pressure): 9.7 ± 3.1 cm H2O
  MI (micturition interval): 221.54 ± 75.20 s
  MP (micturition pressure): 29.2 ± 7.9 cm H2O
  RV (residual volume): 0.30 ± 0.13 mL
  TP (threshold pressure): 17.6 ± 4.3 cm H2O
  VV (voiding volume): 0.16 ± 0.08 mL
Muscarinic M2 receptor
  cAMP: 28.21 pmol/mL
  cAMP, % of forskolin: 91.39%
[2]
  MI (micturition interval): 248.50 ± 144.43 s
  VV (voiding volume): 0.24 ± 0.15 mL

## Cc1ccc(O)c([C@H](CCN(C(C)C)C(C)C)c2ccccc2)c1 [Tolterodine, tolterodine]
[3]; [4]
  BC (bladder capacity): 0.41 ± 0.03 mL
  BP (basal pressure): 4.8 ± 1.1 cmH2O
  MI (micturition interval): 365.4 ± 31.8 s
  MP (micturition pressure): 50.5 ± 1.7 cmH2O
  RV (residual volume): 0 ± 0 mL
  TP (threshold pressure): 18.1 ± 1.7 cmH2O
  VV (voiding volume): 0.41 ± 0.03 mL
[3]; [5]
  BC, Percentage Change (%): 36.7% ↑
  MI, Percentage Change (%): 46.4% ↑
  VV, Percentage Change (%): 36.7% ↑
